The values that follow come from PubChem BioAssay AID449764 (Southern Research Specialized Biocontainment Screening …, 2010).

Usually pIC50 stands for −log10 of the IC50, conventionally taken in molar units. For orientation: IC90 means the concentration at which the effect reaches the 90% level.

The structures appear in SMILES notation. pIC50: −log10 of the molar value.

The experiment has as its system Mycobacterium tuberculosis H37Rv growth inhibition, no glycerol. Description: Mycobacterium tuberculosis H37Rv growth inhibition, no glycerol, confirmatory dose response (AID 449764).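 For all read-outs here: growth read after 7 days of incubation.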 The conditions noted are these: for IC90: measured here: IC90 growth inhibition.

For `CC1(C)CC(=O)C2=C(C1)NC(Nc1nc3ccccc3o1)=NC2c1ccccn1` (stereo not given), the negative-log IC50 (pIC50) is 5.52 and the IC90 was found to be 6.27 µM.
Turning to `CCCn1c(N2CCN(Cc3ccc(Cl)cc3)CC2)nc2ccccc21`, the pIC50 is 4.60 and the IC90 was 38 µM.
In the case of `Cc1ccc2nc3c(cc(C(=O)NCc4ccco4)c(=N)n3Cc3ccco3)c(=O)n2c1`, the pIC50 was 4.27 and the IC90 was greater than 100 µM.
Taken in the same sequence, the figures for `O=[N+]([O-])c1cn(-c2nc(-c3ccco3)cc(C(F)(F)F)n2)cn1` were 5.42 and greater than 100 µM.
Turning to `C=CCc1cc(C)ccc1OCCCC(C(=O)OCC)C(=O)OCC`, the pIC50 was 4.55 and the IC90 is 52.1 µM.
With `Cc1ccsc1/C=C1\SC(N2CCOCC2)=NC1=O`, the pIC50 is 4.63 and the IC90 turned out to be 27 µM.
Taken in the same sequence, the figures for `COc1nc(-c2ccccc2)cc(-c2ccc(OC)c(OC)c2)n1` were 4.06 and greater than 100 µM.
On the same counts, the results for `Ic1ccccc1CN[C@@H]1C2CCN(CC2)[C@@H]1C(c1ccccc1)c1ccccc1` are 4.54 and 42.7 µM.
On to `O=C(N/N=C\C=C\c1ccc([N+](=O)[O-])o1)c1cccs1`, for which the pIC50 is 4.97 and the IC90 was 15.1 µM.
On the same counts, the results for `CCOC(=O)CSC1=C(C#N)C(c2ccc(C)cc2)C2=C(CCCC2=O)N1` (stereo not given) are 4.33 and greater than 100 µM.
On the same counts, the results for `CCN(CC)c1ccc2nc3ccccc3[n+](CC)c2c1` are 5.49 and 5.55 µM.
Consider `Cn1nc(-c2ccc(N3CCCCC3)c(NC(=O)c3ccco3)c2)c2ccccc2c1=O`, for which the pIC50 was 5.09 and the IC90 is 12.2 µM.
On the same counts, the results for `S=C(Nc1ccc(Cl)cc1)Nc1cccc2cnccc12` are 5.25 and 5.92 µM.
For `CC[n+]1c(/C=C/N(C)c2ccccc2)n(-c2ccccc2)c2ccc(-c3nc4ccccc4s3)cc21`, the pIC50 was 5.95 and the IC90 was found to be 1.36 µM.
As for `CCCn1nnc(NC(=O)COc2ccc(CC)cc2)n1`, the pIC50 was 4.32 and the IC90 was greater than 100 µM.
On the same counts, the results for `Cc1ccc(S(=O)(=O)/N=C(\CCl)N2CCOCC2)cc1` are 4.73 and 27.5 µM.
As to `CCCOC(=O)/C(=C\c1ccc([N+](=O)[O-])o1)NC(=O)c1ccccc1`, the pIC50 is 4.62 and the IC90 was greater than 100 µM.
As for `Oc1cc(NCc2cccnc2)ccc1-c1nc2ccccc2o1`, the pIC50 is 4.50 and the IC90 was found to be 61.3 µM.
In the case of `COc1ccc(CN(CCC(c2ccccc2)c2ccc(OC(C)C)cc2)C(=O)CCl)cc1OC` (stereo not given), the pIC50 is 4.80 and the IC90 is 23.5 µM.
On the same counts, the results for `CCn1cnc2sc(C(=O)Oc3ccc(Br)cc3)c(C)c2c1=O` are 5.32 and 8.17 µM.
As to `CC1=NN(c2ccccc2)C(=O)/C1=C\c1c(C)[nH]n(-c2ccccc2)c1=O`, the IC90 was greater than 100 µM.
`CC1=NN(C(N)=S)C(=O)C1N=Nc1ccc(C)c(Br)c1` (stereo not given): the pIC50 is 4.43 and the IC90 is greater than 100 µM.
For the molecule `COc1ccc(/C=N/OCC(=O)OCC(=O)N(C)c2ccccc2)cc1`, the pIC50 was 4.59 and the IC90 stood at 51.8 µM.
On to `CC(OC(=O)c1cc(Cl)ccc1[N+](=O)[O-])C(=O)NC(C)c1ccc(F)cc1` (stereo not given), for which the pIC50 was 4.56 and the IC90 is greater than 100 µM.
As to `CCN(CC)CCNC(=O)c1ccc(NC(=O)c2cn(-c3ccccc3)nc2-c2cccs2)cc1`, the pIC50 was 4.61 and the IC90 was determined as 27.6 µM.
Taken in the same sequence, the figures for `CCCCCc1ccc(S(=O)(=O)NCCc2ccncc2)cc1` were 4.44 and 47 µM.
Turning to `CCCCCCN=C1CC(C)(C)CC(=O)/C1=C(/O)CCC`, the pIC50 was 4.15 and the IC90 was greater than 100 µM.
Regarding `O=C(CCl)Nc1cccn2ncnc12`, the pIC50 is 5.48 and the IC90 amounted to 7.56 µM.
On the same counts, the results for `Cc1ccccc1NC(=O)Cc1nc(COC(=O)/C=C/c2ccccc2)cs1` are 4.17 and 92.3 µM.
For the molecule `Cc1ccc(-c2nc3ccsc3c(=O)o2)cc1`, the pIC50 is 5.38 and the IC90 is greater than 100 µM.
Taken in the same sequence, the figures for `COc1ccc(C2CC(c3cccs3)=Nc3ccccc3S2)cc1` (stereo not given) were 4.38 and 50.9 µM.
As for `COc1ccc(-c2c(C#N)c(SCC(=O)c3cc4ccccc4oc3=O)nc(C)c2C(=O)Nc2ccccc2)cc1`, the pIC50 was 4.14 and the IC90 is greater than 100 µM.
For `CCn1c(SCC(=O)OC2CCCCC2)nc2ccccc2c1=O`, the pIC50 is 4.39 and the IC90 turned out to be 55.1 µM.
For `CCOC(=O)COc1ccc(S(=O)(=O)NCCC2=CCCCC2)cc1`, the pIC50 was 4.64 and the IC90 was 25.9 µM.
As to `Cc1[nH]n(S(=O)(=O)Cc2ccccc2)c(=O)c1N=Nc1ccccc1Cl`, the negative logarithm of the IC50 (pIC50) was 4.74 and the 90% effect concentration (IC90) came out at 28.7 µM.
On to `C#CCOC(=O)/C(=C/C=C/c1ccccc1)NC(=O)c1ccccc1`, for which the pIC50 was 4.57 and the IC90 turned out to be 56.6 µM.
Regarding `CCOc1ccc(/C=N/Nc2ccc(Cl)nn2)c(O)c1`, the pIC50 is 5.23 and the IC90 is 6.71 µM.
Take `CCOC(=O)c1cc(-c2ccc(N3CCOCC3)cc2)nn1-c1ccccc1`: the pIC50 is 4.55 and the IC90 came to 58.1 µM.
On the same counts, the results for `CN(CC(=O)Nc1ccc(OC(F)(F)F)cc1)C(=O)/C=C/c1cc2c(cc1[N+](=O)[O-])OCO2` are 4.46 and 40.5 µM.
With `CCCOc1cccc(-c2nn(-c3ccccc3)cc2/C=C(\C#N)C(=O)NCCCn2ccnc2)c1`, the pIC50 was 4.20 and the IC90 came out at 78.3 µM.
On the same counts, the results for `CN(C)CCOc1nc(-c2ccccc2)nc2c1oc1ccccc12` are 4.72 and 25.6 µM.
On to `CCCOc1ccc2oc(=O)c3c(c2c1)CCCN3C(=O)CN1CCN(c2ncccn2)CC1`, for which the pIC50 was 4.14 and the IC90 is greater than 100 µM.
Taken in the same sequence, the figures for `CCOc1cc(-c2c(C#N)c(=O)[nH]c3c2c(C)nn3-c2ccc(F)cc2)ccc1O` were 5.31 and 8.73 µM.
Turning to `Cc1nnc(SCc2ccccc2Cl)n(N)c1=O`, the IC90 was greater than 100 µM.
Turning to `CCN(CC)c1ccc(/C=C2\SC(=O)N(C(C)C)C2=O)o1`, the pIC50 was 5.54 and the IC90 was 4.69 µM.
On the same counts, the results for `O=C(/C=C/Sc1ncn[nH]1)c1ccc(Cl)cc1` are 4.46 and 55.1 µM.
In the case of `COC(=O)c1ccc(-n2cnc3ccccc32)nc1`, the pIC50 was 4.75 and the 90% effect concentration (IC90) came out at 39.5 µM.
Turning to `COc1ccc(CNC(=O)c2c(N)n(CCCN3CCOCC3)c3nc4ccccc4nc23)cc1`, the pIC50 is 4.03 and the IC90 is greater than 100 µM.
On the same counts, the results for `Cc1ccc(-c2csc3ncnc(Nc4ccc(N5CCOCC5)cc4)c23)cc1` are 4.62 and 26.2 µM.
Regarding `CC(Sc1nnc(NC2CCCCC2)s1)C(=O)Nc1ccc2c(c1)C(=O)c1ccccc1C2=O` (stereo not given), the pIC50 was 4.95 and the IC90 amounted to 14.4 µM.
Regarding `O=c1cc(N=Nc2ccc(Cl)cc2)[nH]c(=O)[nH]1`, the pIC50 was 4.10 and the IC90 was greater than 100 µM.
